Measurements: PMC10649008 (Antimicrobial Agents and Chemotherapy, 2023)
Where “and” joins values, the source holds several entries; their conditions need not be identical. Equal values may be shown once. Read-outs that look alike come from different tables or passages of the source.

Experiments:
[1] = From the text: All study procedures were reviewed and approved by the respective Institutional Review Board for each study site. Prior to any study procedures, written informed consent from a parent or legal guardian and assent (if appropriate for older patients) were obtained. The patient population consisted of subjects aged >12 months to <17 years of age who required systemic antibiotic therapy for the treatment or prevention of known or suspected bacterial infection. Subjects were enrolled into four cohorts stratified by age: adolescents (12–17 years of age), older children (6–11 years of age), younger children (2–5 years of age), and infants (1–2 years of age). […] The study consisted of a screening period followed by a treatment period and a safety follow-up period through Day 8 ± 1 day.
(§1) Safety was monitored during both the screening and treatment periods by physical exams, vital signs, urinalysis, and clinical laboratory measures (complete blood count with differential, serum chemistry, creatinine, and liver enzymes); AEs and concomitant medications were recorded from screening through follow-up on Day 8 (± 1 day). Medical and medication history and demographics were collected at screening. Vital signs (heart rate, blood pressure, respiratory rate, and body temperature) were collected at screening, Days 1 and 2 of the study.

[2] = post-dose, single 10 mg/kg IV
Experimental: as §1

[3] = Healthy adults, N = 42, single 10 mg/kg IV dose, mean ± SD, cited from earlier work
[4] = five courses in three adolescent cystic fibrosis patients; 8.7–10 mg/kg daily for up to 3 weeks; cited from earlier work
[5] = all cohorts, three of 22 subjects, single 10 mg/kg IV
[6] = all cohorts, two of 22 subjects, single 10 mg/kg IV

CCCCCCCCCCNCCN[C@@]1(C)C[C@H](O[C@H]2[C@H](Oc3c4cc5cc3Oc3ccc(cc3Cl)[C@@H](O)[C@@H](NC(=O)[C@@H](CC(C)C)NC)C(=O)N[C@@H](CC(N)=O)C(=O)N[C@H]5C(=O)N[C@H]3C(=O)N[C@H](C(=O)N[C@H](C(=O)O)c5cc(O)c(CNCP(=O)(O)O)c(O)c5-c5cc3ccc5O)[C@H](O)c3ccc(c(Cl)c3)O4)O[C@H](CO)[C@@H](O)[C@@H]2O)O[C@@H](C)[C@H]1O [telavancin]
Number of adverse events moderate in severity ([1]; Cohort 2 (6–11 years), of 11 AEs, single 10 mg/kg IV): two
Adverse events considered probably related to telavancin administration ([1]; Cohort 2 (6–11 years), six of the 11 events): 55%
Adverse events ([1]; Cohort 3 (2–5 years), single subject, single 10 mg/kg IV): No AEs were reported
Subjects with adverse events ([1]; all cohorts, 10 of the 22 subjects, single 10 mg/kg IV, through Day 8 ± 1): 45%
Total number of adverse events (AEs) ([1]; all cohorts, 22 subjects 2–17 years, single 10 mg/kg IV, through Day 8 ± 1): 27
Serious adverse events ([1]; all cohorts, 22 subjects, single 10 mg/kg IV): no serious AEs
Subjects with nausea ([1]; all cohorts, four of 22 subjects, single 10 mg/kg IV): 18%
Subjects with foamy urine [1, 5]: 14%
Subjects with taste disturbance/metallic taste [1, 5]: 14%
Subjects with dizziness [1, 6]: 9%
Subjects with headache [1, 6]: 9%
Tolerability of a single dose ([1]; all pediatric age cohorts, single 10 mg/kg IV): well-tolerated
QT interval (12-lead ECG) ([1]; one subject in Cohort 2 (6–11 years), ECG 1.5–2.5 h after start of infusion, moderate, resolved prior to Day 8): prolonged QT interval
Infusion reactions ([1]; single 10 mg/kg infusion administered over an hour, all cohorts): no infusion reactions
Clinically significant abnormalities following telavancin administration ([1]; worsened ALT and LDH in one Cohort 1 subject, prolonged QT in one Cohort 2 subject, moderate, resolved prior to Day 8): three
Creatinine ([2]; Cohort 1 (12 to 17 years), 9 subjects, pre-dose 0.6 ± 0.2 (N = 14)): 1.0 ± 1.1 mg/dL
Total bilirubin ([2]; Cohort 1 (12 to 17 years), 9 subjects, pre-dose 0.6 ± 0.3 (N = 14)): 0.3 ± 0.2 mg/dL
Leukocytes ([2]; Cohort 1 (12 to 17 years), 9 subjects, pre-dose 10.3 ± 3.1 (N = 14)): 7.3 ± 2.0 x10^9/L
Hemoglobin ([2]; Cohort 1 (12 to 17 years), 9 subjects, pre-dose 12.2 ± 1.7 (N = 14)): 12.1 ± 1.4 g/dL
Alanine aminotransferase ([2]; Cohort 1 (12 to 17 years), 9 subjects, pre-dose 25.9 ± 15.1 (N = 14)): 37.4 ± 24.2 IU/L
Aspartate aminotransferase ([2]; Cohort 1 (12 to 17 years), 9 subjects, pre-dose 50.9 ± 56.2 (N = 14)): 72.8 ± 72.0 IU/L
Platelets ([2]; Cohort 1 (12 to 17 years), 9 subjects, pre-dose 226 ± 69.1 (N = 14)): 236 ± 85.9 x10^9/L
Lactate dehydrogenase ([2]; Cohort 1 (12 to 17 years), 9 subjects, pre-dose 361 ± 247 (N = 14)): 439 ± 270 IU/L
Creatinine ([2]; Cohort 2 (6 to 11 years), 6 subjects, pre-dose 0.4± 0.1 (N = 7)): 0.4 ± 0.1 mg/dL
Total bilirubin ([2]; Cohort 2 (6 to 11 years), 6 subjects, pre-dose 0.6 ± 0.5 (N = 7)): 0.5 ± 0.3 mg/dL
Leukocytes ([2]; Cohort 2 (6 to 11 years), 6 subjects, pre-dose 8.3 ± 3.0 (N = 7)): 6.3 ± 1.3 x10^9/L
Hemoglobin ([2]; Cohort 2 (6 to 11 years), 6 subjects, pre-dose 11.7 ± 1.4 (N = 7)): 11.9 ± 1.4 g/dL
Alanine aminotransferase ([2]; Cohort 2 (6 to 11 years), 6 subjects, pre-dose 30.9 ± 12.2 (N = 7)): 36.8 ± 19.4 IU/L
Aspartate aminotransferase ([2]; Cohort 2 (6 to 11 years), 6 subjects, pre-dose 41.6 ± 26.0 (N = 7)): 46.7 ± 40.7 IU/L
Platelets ([2]; Cohort 2 (6 to 11 years), 6 subjects, pre-dose 267 ± 73.6 (N = 7)): 289 ± 105.5 x10^9/L
Creatinine ([2]; Cohort 3 (2 to 5 years), N = 1, pre-dose 0.2 ± 0.0): 0.2 ± 0.0 mg/dL
Total bilirubin ([2]; Cohort 3 (2 to 5 years), N = 1, pre-dose 0.4 ± 0.0): 0.4 ± 0.0 mg/dL
Leukocytes ([2]; Cohort 3 (2 to 5 years), N = 1, pre-dose 4.6 ± 0.0): 7.5 ± 0.0 x10^9/L
Hemoglobin ([2]; Cohort 3 (2 to 5 years), N = 1, pre-dose 10.0 ± 0.0): 10.3 ± 0.0 g/dL
Aspartate aminotransferase ([2]; Cohort 3 (2 to 5 years), N = 1, pre-dose 41.0 ± 0.0): 37.0 ± 0.0 IU/L
Alanine aminotransferase ([2]; Cohort 3 (2 to 5 years), N = 1, pre-dose 72.0 ± 0.0): 62.0 ± 0.0 IU/L
Platelets ([2]; Cohort 3 (2 to 5 years), N = 1, pre-dose 148 ± 0.0): 195 ± 0.0 x10^9/L
Lactate dehydrogenase ([2]; Cohort 3 (2 to 5 years), N = 1, pre-dose 477 ± 0.0): 480 ± 0.0 IU/L
AUC0-inf (area under the curve extrapolated to infinity) ([3]; 10 mg/kg): 747 µg·h/mL and 747 ± 129 µg·h/mL
T 1/2 (terminal elimination half-life) ([3]; 10 mg/kg): 8.0 h and 8.0 ± 1.5 h
C max (maximum plasma concentration) [3]: 93.6 ± 14.2 µg/mL
CL (clearance) [3]: 0.232 ± 0.0483 mL/min/kg
Serum creatinine across courses of treatment [4]: remained stable
